Experiments:
[1] = system: porcine cortical pα1 adrenergic receptor; experiment: Receptor binding assay, [3H]prazosin competition, porcine cortical membranes; settings: vs p5-HT1a
[2] = molecular target: T1, porcine cortical pα1 adrenergic receptor; experiment: as above; settings: means of 2-8 individual experiments each done as triplicate
T1 construct: Ki pα1; other: means of 2-8 individual experiments each done as triplicate

[3] = molecular target: T2, human dopamine receptor subtype hD4.4 (Homo sapiens, UniProt P21917); experiment: Receptor binding assay, [3H]spiperone competition, CHO cell membranes; settings: for Ki: means of 2-8 individual experiments each done as triplicate; for selectivity ratio hD4.4: vs p5-HT1a
T2 construct: expressed in transfected cells; host or cells: CHO
T2 sequence (P21917 1-419): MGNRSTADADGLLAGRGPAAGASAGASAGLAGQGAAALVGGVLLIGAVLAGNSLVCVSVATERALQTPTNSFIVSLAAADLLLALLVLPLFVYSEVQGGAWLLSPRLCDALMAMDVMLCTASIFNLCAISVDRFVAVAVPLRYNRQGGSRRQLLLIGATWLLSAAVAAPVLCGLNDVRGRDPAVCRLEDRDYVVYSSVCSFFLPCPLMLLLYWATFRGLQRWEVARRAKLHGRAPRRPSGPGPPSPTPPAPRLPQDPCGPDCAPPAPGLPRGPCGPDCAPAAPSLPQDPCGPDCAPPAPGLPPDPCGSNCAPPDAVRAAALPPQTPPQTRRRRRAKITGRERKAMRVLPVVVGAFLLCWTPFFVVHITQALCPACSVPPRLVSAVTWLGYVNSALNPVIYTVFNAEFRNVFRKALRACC
Experimental: Receptor binding data were determined when performing competition binding assays with membrane preparations of cloned cells (stably transfected Chinese Hamster Ovary cells (CHO)) expressing the human receptors and the following radioligands: [^3H]spiperone at the human dopamine receptor subtypes hD2long, hD2short, D3, and hD4.4. […].
(§1) Selectivity ratios were calculated by division of the Ki values of the various compounds at the respective receptors through the Ki values at the 5HT1a receptor.

[4] = molecular target: T3, porcine striatal pD1 dopamine receptor (Sus scrofa, UniProt P50130); experiment: Receptor binding assay, [3H]SCH 23390 competition, porcine striatal membranes; settings: for Ki: means of 2-8 individual experiments each done as triplicate; for selectivity ratio pD1: vs p5-HT1a
T3 construct: membrane homogenates prepared from porcine striatal or cortical tissue; from tissue; host or cells: porcine striatum

[5] = molecular target: T4, porcine cortical p5-HT2 serotonin receptor (Sus scrofa, UniProt P50129); experiment: Receptor binding assay, [3H]ketanserin competition, porcine cortical membranes; settings: for Ki: means of 2-8 individual experiments each done as triplicate; for selectivity ratio p5-HT2: vs p5-HT1a
T4 construct: membrane homogenates prepared from porcine striatal or cortical tissue; from tissue; host or cells: porcine cortex

[6] = molecular target: T5, porcine cortical p5-HT1a serotonin receptor (Sus scrofa, UniProt A0A4X1UTF5); experiment: Receptor binding assay, [3H]WAY100635 competition, porcine cortical membranes; settings: for Ki: means of 2-8 individual experiments each done as triplicate; for selectivity ratio p5-HT1a: reference receptor of the ratio (=1)
T5 construct: membrane homogenates prepared from porcine striatal or cortical tissue; from tissue; host or cells: porcine cortex
T5 sequence (A0A4X1UTF5 1-422): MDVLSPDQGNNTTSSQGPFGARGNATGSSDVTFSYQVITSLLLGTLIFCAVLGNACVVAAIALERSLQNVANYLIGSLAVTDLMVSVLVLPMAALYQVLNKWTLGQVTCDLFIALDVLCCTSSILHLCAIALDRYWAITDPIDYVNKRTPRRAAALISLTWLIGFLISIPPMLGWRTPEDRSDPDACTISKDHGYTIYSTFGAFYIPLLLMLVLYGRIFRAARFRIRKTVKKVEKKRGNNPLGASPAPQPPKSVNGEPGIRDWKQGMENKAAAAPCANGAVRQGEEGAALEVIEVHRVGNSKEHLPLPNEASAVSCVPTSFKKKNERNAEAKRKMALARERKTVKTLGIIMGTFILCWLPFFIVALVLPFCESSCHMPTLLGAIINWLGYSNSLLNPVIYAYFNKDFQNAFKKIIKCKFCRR

[7] = molecular target: T6, human dopamine receptor subtype hD2long (Homo sapiens, UniProt P14416); experiment: Receptor binding assay, [3H]spiperone competition, CHO cell membranes; settings: for Ki: means of 2-8 individual experiments each done as triplicate; for selectivity ratio hD2long: vs p5-HT1a
T6 construct: expressed in transfected cells; host or cells: CHO
Experimental: (§2) Receptor binding data were determined when performing competition binding assays with membrane preparations of cloned cells (stably transfected Chinese Hamster Ovary cells (CHO)) expressing the human receptors and the following radioligands: [^3H]spiperone at the human dopamine receptor subtypes hD2long, hD2short, D3, and hD4.4.
as §1

[8] = molecular target: T7, human dopamine receptor subtype hD3 (Homo sapiens, UniProt P35462); experiment: as above; settings: for Ki: means of 2-8 individual experiments each done as triplicate; for selectivity ratio hD3: vs p5-HT1a
T7 construct: expressed in transfected cells; host or cells: CHO
Experimental: as §2, §1

[9] = molecular target: T8, human dopamine receptor subtype hD2short (Homo sapiens, UniProt P14416); experiment: as above; settings: for Ki: means of 2-8 individual experiments each done as triplicate; for selectivity ratio hD2short: vs p5-HT1a
T8 construct: expressed in transfected cells; host or cells: CHO
Experimental: as §2, §1

[10] = molecular target: T9, human 5-HT1a receptor (Homo sapiens, UniProt P08908); experiment: [35S]GTPγS functional assay; type: biochemical
T9 construct: expressed in transfected cells
T9 sequence (P08908 1-422): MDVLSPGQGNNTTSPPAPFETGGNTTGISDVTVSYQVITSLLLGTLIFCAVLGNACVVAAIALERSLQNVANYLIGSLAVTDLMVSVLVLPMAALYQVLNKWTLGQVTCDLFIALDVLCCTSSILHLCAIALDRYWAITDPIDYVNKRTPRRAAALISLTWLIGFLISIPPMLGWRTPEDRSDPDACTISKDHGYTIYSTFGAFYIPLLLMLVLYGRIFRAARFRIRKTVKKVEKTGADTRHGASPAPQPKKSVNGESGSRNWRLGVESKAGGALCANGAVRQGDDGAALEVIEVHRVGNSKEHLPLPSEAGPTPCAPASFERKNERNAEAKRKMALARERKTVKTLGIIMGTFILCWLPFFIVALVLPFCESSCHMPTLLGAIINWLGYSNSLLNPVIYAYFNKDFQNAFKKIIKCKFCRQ
Experimental: Specific binding of [^35S]GTPγS is stimulated by activation of the stably expressed human 5-HT1a receptor in a dose-dependent way by agonists for this GPCR and is determined by measuring the radioactive label of the membrane. Non-linear regression analysis of the resulting dose-response curves yields the EC50 value in [nM] representing the half maximal concentration which is necessary to activate the receptor completely.

T6 sequence (P14416 whole entry): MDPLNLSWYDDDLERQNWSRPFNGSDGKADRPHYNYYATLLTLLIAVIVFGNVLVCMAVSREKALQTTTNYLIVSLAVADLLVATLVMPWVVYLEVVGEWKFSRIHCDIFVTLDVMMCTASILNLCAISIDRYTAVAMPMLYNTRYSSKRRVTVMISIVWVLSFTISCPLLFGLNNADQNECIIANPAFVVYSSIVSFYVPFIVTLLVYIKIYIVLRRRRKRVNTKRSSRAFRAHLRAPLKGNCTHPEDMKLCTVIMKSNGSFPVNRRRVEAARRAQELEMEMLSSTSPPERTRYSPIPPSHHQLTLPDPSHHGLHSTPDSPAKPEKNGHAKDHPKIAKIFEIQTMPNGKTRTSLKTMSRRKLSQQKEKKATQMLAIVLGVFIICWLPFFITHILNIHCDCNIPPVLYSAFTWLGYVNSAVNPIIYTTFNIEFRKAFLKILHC
T7 sequence (P35462 whole entry): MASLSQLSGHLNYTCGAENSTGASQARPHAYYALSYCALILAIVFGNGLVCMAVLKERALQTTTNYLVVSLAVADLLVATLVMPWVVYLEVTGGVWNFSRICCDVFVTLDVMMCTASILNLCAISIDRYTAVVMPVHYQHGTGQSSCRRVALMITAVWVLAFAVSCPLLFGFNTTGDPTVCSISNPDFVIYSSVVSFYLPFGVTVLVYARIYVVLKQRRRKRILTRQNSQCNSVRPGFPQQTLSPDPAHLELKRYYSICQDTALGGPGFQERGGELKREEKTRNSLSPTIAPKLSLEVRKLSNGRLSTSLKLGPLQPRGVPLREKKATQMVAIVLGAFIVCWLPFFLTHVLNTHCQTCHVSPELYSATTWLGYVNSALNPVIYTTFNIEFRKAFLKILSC
T4 sequence (P50129 whole entry): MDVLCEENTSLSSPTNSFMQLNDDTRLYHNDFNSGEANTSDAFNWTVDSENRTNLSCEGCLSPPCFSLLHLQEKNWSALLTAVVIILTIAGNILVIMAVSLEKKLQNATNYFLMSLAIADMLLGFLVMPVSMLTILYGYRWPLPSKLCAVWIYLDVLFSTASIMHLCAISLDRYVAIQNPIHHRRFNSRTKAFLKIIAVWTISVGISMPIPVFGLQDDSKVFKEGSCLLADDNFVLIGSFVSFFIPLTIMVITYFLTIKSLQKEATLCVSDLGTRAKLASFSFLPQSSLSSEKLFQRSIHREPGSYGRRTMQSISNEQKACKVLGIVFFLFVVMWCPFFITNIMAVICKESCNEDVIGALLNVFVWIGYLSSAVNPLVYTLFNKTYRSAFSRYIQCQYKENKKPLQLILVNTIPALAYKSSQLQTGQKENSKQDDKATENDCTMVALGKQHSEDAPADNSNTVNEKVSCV
T3 sequence (P50130 whole entry): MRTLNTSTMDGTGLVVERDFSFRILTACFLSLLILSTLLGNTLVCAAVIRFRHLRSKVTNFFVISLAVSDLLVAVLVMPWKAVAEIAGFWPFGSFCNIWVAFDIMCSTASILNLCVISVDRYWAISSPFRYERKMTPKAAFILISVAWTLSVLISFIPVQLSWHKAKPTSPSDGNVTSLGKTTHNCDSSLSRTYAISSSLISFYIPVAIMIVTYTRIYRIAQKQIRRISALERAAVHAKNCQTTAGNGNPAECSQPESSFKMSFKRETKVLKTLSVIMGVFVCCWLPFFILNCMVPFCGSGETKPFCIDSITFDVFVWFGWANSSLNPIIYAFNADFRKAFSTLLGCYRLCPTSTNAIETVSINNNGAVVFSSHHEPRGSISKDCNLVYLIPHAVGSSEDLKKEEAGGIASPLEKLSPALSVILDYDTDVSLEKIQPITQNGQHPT
T8 sequence (P14416 1-414 isoform P14416-2): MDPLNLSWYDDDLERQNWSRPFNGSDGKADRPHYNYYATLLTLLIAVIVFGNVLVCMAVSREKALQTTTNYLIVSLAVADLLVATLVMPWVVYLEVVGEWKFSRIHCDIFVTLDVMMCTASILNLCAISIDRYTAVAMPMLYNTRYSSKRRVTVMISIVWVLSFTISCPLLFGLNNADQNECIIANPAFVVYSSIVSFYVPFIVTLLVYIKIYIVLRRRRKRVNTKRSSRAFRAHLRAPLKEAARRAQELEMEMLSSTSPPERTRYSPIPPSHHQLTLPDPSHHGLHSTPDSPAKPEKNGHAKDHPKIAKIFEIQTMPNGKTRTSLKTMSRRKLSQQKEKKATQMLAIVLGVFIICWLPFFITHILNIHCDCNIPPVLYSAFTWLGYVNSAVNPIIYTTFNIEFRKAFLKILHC

| EC50 ([10]; mean values of 2-8 individual experiments) | Emax ([10]; read-out: intrinsic activity [% rel. to serotonin]) | Molecule | selectivity ratio pα1 [1] | Ki [2] | Ki [3] | selectivity ratio hD4.4 [3] | Ki [4] | selectivity ratio pD1 [4] | Ki [5] | selectivity ratio p5-HT2 [5] | Ki [6] | selectivity ratio p5-HT1a [6] | Ki [7] | selectivity ratio hD2long [7] | Ki [8] | selectivity ratio hD3 [8] | Ki [9] | selectivity ratio hD2short [9] |
| --- | --- | --- | --- | --- | --- | --- | --- | --- | --- | --- | --- | --- | --- | --- | --- | --- | --- | --- |
| – | – | CCCN(CCc1cccs1)[C@H]1CCc2cccc(O)c2C1 [Compound 1b, (S)—N-(8-Hydroxytetralin-2-yl)-N-propyl-N-[2-(2-thienyl)ethyl]amine] | 110 | 200 nM | 690 nM | 380 | 5400 nM | 3 000 | 5500 nM | 3 100 | 1.8 nM | 1 | 520 nM | 290 | 49 nM | 26 | 290 nM | 160 |
| 6.3 nM | 91% | CCCN(CCc1cccs1)C1CCc2cccc(OC)c2C1 (stereo not shown) [Compound 2, N-(8-Methoxytetralin-2-yl)-N-propyl-N-[2-(2-thienyl)ethyl]amine] | – | 200 nM | 390 nM | – | 6700 nM | – | 12000 nM | – | 2.9 nM | – | 160 nM | – | 57 nM | – | 390 nM | – |
| – | – | CCCN(CCc1cccs1)[C@H]1CCc2cccc(OC)c2C1 [Compound 2b, (S)—N-(8-Methoxytetralin-2-yl)-N-propyl-N-[2-(2-thienyl)ethyl]amine] | – | 140 nM | 760 nM | – | 3300 nM | – | 3900 nM | – | 6.7 nM | – | 85 nM | – | 32 nM | – | 58 nM | – |
| – | – | CCCN(CCc1ccccc1)C1CCc2cccc(O)c2C1 (stereo not shown) [Compound 3, N-(8-Hydroxytetralin-2-yl)-N-(2-phenylethyl)-N-propylamine] | 230 | 140 nM | 590 nM | 950 | 9100 nM | 15 000 | 5800 nM | 9 400 | 0.62 nM | 1 | 760 nM | 1 200 | 190 nM | 310 | 170 nM | 270 |
| – | – | CCCN(CCc1ccc(O)cc1)C1CCc2cccc(O)c2C1 (stereo not shown) [Compound 5, N-[2-(4-Hydroxyphenyl)ethyl]-N-(8-hydroxytetralin-2-yl)-N-propylamine] | 79 | 87 nM | 570 nM | 520 | 6200 nM | 5 600 | 6600 nM | 6 000 | 1.1 nM | 1 | 340 nM | 310 | 95 nM | 86 | 86 nM | 80 |
| – | – | CCCN(CCc1ccc(OC)cc1)C1CCc2cccc(OC)c2C1 (stereo not shown) [Compound 6, N-[2-(4-Methoxyphenyl)ethyl]-N-(8-methoxytetralin-2-yl)-N-propylamine] | – | 230 nM | 470 nM | – | 9500 nM | – | 4900 nM | – | 5.5 nM | – | 340 nM | – | 110 nM | – | 260 nM | – |
| – | – | CCCN(CCc1cc(C)ccc1C)C1CCc2cccc(OC)c2C1 (stereo not shown) [Compound 8, N-(8-Methoxytetralin-2-yl)-N-propyl-N-[2-(2,5-dimethyl)phenylethyl]amine] | – | 510 nM | 940 nM | – | 6200 nM | – | 4400 nM | – | 24 nM | – | 300 nM | – | 110 nM | – | 180 nM | – |
| – | – | CCCN(CCc1cc2ccc1CCc1ccc(cc1)CC2)C1CCc2cccc(O)c2C1 (stereo not shown) [Compound 13, N-(8-Hydroxytetralin-2-yl)-N-[2-([2.2]paracyclophan-4-yl)ethyl]-N-propylamine] | 62 | 930 nM | 87 nM | 5.8 | 3500 nM | 230 | 2100 nM | 140 | 15 nM | 1 | 990 nM | 66 | 170 nM | 11 | 640 nM | 43 |
| – | – | CCCN(CCc1cc2ccc1CCc1ccc(cc1)CC2)C1CCc2cccc(OC)c2C1 (stereo not shown) [Compound 14, N-(8-Methoxytetralin-2-yl)-N-propyl-N-[2-([2.2]paracyclophan-4-yl)ethyl]-amine] | 5.6 | 280 nM | 110 nM | 2.2 | 1900 nM | 38 | 7300 nM | 150 | 50 nM | 1 | 48 nM | 0.96 | 33 nM | 0.66 | 35 nM | 0.70 |
| – | – | CCCN(CCC)C1CCc2cccc(O)c2C1 (stereo not drawn) [R-(+)-8-OH-DPAT, reference compound] | – | 250 nM | 210 nM | – | 3300 nM | – | 2100 nM | – | 1.2 nM | – | – | – | – | – | – | – |
| – | – | N-(2-Adamantylethyl)-N-(8-methoxytetralin-2-yl)-N-propylamine [Compound 10] | 75 | 4900 nM | 1800 nM | 28 | 12000 nM | 180 | 14000 nM | 220 | 65 nM | 1 | 380 nM | 5.8 | 260 nM | 4.0 | 190 nM | 2.9 |
| – | – | N-(2-Ferrocenylethyl)-N-(8-hydroxytetralin-2-yl)-N-propylamine [Compound 11] | – | 170 nM | 7.4 nM | – | 3100 nM | – | 930 nM | – | 0.32 nM | – | 34 nM | – | 52 nM | – | 16 nM | – |
| – | – | N-(2-Ferrocenylethyl)-N-(8-methoxytetralin-2-yl)-N-propylamine [Compound 12] | – | 92 nM | 3.5 nM | – | 2600 nM | – | 2200 nM | – | 1.8 nM | – | 38 nM | – | 11 nM | – | 17 nM | – |
